Read-outs that look alike come from different tables or passages of the source.
Experiments:
HeLa cells = test: Antiproliferative SRB assay; format: cell-based; conditions: 48 h, read-out: IC50 ± SD in HeLa
[1] = tested on: M6/6 cells (SK-OV-3 expressing Pgp); test: Antiproliferative SRB assay; conditions: read-out: IC50 ± SD in M6/6 cells; SRB, 48 h
[2] = tested on: cellular microtubules in A-10 cells; test: Microtubule depolymerization, indirect immunofluorescence; format: cell-based; conditions: for EC50: A-10 cells, 18 h, read-out: EC50 for MT depolymerization in A-10 cells
purified tubulin = test: Inhibition of tubulin assembly; format: biochemical; conditions: read-out: Inhibition tubulin assembly IC50 ± SD
SKOV3 cells = test: Antiproliferative SRB assay; format: cell-based; conditions: 48 h, read-out: IC50 ± SD in SKOV3 cells
MDA-435 cells = test: Antiproliferative SRB assay; format: cell-based; conditions: 48 h, read-out: IC50 ± SD in MDA-435 cells
[3] = tested on: WTβ3 cells (HeLa overexpressing βIII tubulin); test: Antiproliferative SRB assay; format: cell-based; conditions: SRB, 48 h; read-out: IC50 ± SD in WTβ3
[4] = tested on: colchicine site on tubulin; test: Inhibition of [3H]colchicine binding; conditions: 5 μM
A431 cancer cells = test: A431 cytotoxicity (cell proliferation); format: cell-based, human; conditions: Homo sapiens, A-431
PDGFR-β = PDGFR-β (Homo sapiens (Human), UniProt P09619); test: PDGFR-β kinase inhibition, phosphotyrosine ELISA cytoblot; format: cell-based; conditions: SH-SY5Y cells, phosphotyrosine ELISA
PDGFR-β, sequence (P09619 33-1106): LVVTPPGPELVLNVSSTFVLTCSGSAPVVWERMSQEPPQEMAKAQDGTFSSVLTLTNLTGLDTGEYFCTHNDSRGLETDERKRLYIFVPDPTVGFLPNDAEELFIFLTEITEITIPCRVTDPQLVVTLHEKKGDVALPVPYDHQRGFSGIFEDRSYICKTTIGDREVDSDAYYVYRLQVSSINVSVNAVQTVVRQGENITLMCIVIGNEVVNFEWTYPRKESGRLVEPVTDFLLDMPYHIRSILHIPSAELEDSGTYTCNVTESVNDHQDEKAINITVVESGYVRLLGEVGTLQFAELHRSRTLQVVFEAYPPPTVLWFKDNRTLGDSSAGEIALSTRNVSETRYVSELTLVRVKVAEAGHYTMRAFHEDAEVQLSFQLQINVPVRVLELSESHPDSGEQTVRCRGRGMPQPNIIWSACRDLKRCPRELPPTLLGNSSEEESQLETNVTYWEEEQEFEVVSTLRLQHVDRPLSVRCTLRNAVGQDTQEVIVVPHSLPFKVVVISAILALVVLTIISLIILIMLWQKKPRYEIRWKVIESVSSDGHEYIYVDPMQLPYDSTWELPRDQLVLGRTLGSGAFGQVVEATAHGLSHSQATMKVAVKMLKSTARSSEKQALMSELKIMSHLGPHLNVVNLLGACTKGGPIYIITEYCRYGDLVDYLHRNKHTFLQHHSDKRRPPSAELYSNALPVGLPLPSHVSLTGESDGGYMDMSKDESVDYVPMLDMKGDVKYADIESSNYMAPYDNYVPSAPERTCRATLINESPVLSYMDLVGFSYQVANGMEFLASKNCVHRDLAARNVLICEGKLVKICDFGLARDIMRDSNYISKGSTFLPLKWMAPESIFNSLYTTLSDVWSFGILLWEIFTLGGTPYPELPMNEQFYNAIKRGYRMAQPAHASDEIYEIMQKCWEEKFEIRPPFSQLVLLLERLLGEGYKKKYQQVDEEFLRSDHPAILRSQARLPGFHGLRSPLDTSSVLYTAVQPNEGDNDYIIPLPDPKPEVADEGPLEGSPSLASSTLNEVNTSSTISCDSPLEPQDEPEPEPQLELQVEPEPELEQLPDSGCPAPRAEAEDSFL

EGFR = EGFR (Homo sapiens (Human), UniProt P00533); test: EGFR kinase inhibition, phosphotyrosine ELISA cytoblot; format: cell-based; conditions: A431 cells
EGFR, sequence (P00533 25-1210): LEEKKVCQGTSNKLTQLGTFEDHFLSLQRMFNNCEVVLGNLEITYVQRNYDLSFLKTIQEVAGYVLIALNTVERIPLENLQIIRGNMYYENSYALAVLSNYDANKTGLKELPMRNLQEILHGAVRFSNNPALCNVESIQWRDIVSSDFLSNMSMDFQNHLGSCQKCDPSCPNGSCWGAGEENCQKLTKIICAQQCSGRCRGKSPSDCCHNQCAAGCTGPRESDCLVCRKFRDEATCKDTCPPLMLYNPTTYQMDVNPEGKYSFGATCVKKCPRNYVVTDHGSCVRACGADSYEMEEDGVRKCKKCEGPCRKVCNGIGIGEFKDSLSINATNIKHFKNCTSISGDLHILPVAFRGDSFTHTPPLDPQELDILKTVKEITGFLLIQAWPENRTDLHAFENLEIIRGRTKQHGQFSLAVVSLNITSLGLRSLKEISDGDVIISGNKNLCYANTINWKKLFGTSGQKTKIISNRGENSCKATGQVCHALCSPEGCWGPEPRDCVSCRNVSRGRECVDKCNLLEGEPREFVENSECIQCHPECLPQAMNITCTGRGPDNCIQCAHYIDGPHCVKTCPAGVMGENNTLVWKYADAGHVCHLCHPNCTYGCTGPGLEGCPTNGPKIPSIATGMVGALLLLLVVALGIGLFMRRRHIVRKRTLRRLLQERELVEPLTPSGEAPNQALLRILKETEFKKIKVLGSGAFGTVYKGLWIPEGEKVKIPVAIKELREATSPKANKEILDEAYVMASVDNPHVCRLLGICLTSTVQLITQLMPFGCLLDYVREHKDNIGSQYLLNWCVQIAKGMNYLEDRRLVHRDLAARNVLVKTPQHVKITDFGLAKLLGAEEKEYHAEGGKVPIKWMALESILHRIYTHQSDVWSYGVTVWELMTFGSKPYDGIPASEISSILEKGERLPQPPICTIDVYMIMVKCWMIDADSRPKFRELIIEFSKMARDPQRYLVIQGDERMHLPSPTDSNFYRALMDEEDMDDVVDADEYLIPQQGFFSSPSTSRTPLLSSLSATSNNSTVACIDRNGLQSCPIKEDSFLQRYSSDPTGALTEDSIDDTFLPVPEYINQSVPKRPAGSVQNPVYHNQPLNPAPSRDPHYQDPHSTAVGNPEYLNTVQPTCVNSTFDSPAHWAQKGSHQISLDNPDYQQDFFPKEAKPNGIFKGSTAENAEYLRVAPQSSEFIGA

VEGFR-2 = VEGFR-2 (Homo sapiens (Human), UniProt P35968); test: VEGFR-2 kinase inhibition, phosphotyrosine ELISA cytoblot; format: cell-based; conditions: U251 cells, phosphotyrosine ELISA
VEGFR-2, sequence (P35968 20-1356): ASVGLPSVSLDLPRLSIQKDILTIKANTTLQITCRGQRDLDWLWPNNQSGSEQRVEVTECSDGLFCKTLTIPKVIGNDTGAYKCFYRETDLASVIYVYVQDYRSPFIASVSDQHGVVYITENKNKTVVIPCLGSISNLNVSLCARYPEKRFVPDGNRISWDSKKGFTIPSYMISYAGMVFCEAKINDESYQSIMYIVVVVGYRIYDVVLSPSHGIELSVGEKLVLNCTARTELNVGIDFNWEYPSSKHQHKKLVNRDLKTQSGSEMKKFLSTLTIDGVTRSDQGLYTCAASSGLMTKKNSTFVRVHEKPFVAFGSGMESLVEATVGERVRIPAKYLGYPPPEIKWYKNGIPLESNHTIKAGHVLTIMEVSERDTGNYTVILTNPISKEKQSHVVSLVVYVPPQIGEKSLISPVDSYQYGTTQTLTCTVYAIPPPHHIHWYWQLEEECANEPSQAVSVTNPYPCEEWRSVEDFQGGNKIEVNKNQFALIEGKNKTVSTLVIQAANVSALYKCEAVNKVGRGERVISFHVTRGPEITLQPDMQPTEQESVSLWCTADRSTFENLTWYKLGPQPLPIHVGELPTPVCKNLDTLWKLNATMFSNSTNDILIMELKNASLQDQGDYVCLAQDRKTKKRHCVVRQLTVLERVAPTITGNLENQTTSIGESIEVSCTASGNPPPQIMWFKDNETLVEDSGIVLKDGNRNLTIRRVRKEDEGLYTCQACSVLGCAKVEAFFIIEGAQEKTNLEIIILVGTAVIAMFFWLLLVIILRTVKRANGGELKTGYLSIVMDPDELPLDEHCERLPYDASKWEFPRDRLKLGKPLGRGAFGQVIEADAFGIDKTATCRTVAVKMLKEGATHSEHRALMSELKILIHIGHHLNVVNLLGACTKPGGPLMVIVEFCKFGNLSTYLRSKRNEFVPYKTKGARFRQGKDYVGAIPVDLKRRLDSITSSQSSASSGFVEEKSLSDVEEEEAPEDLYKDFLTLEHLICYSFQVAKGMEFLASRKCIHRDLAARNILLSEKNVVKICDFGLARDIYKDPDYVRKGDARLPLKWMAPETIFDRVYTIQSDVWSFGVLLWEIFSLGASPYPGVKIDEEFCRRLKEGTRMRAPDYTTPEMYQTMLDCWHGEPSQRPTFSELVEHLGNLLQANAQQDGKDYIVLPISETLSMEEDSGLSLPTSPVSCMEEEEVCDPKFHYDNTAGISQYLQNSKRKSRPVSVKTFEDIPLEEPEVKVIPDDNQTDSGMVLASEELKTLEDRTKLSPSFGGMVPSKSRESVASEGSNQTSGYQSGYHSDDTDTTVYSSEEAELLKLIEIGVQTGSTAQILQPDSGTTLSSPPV

[5] = tested on: chicken embryo chorioallantoic membrane; test: Chorioallantoic membrane (CAM) assay of angiogenesis; conditions: Gallus gallus, 48 h, read-out: CAM angiogenesis inhibition

IC50 (PDGFR-β) [nM] | IC50 (EGFR) [nM] | IC50 (VEGFR-2) [nM] | EC50 ([2]; Rattus norvegicus, A10) [nM] | SMILES | EC50 [2] [nM] | IC50 (purified tubulin) [nM] | IC50 (A431 cancer cells) [nM] | other results
 |  |  |  | COc1ccc(/C=C\c2cc(OC)c(OC)c(OC)c2)cc1O [CA-4, combretastatin A-4, reference compound] | 9.8 | 1000 ± 90 |  | IC50 (HeLa cells): 5.6 ± 0.3 nM; IC50 [1]: 3 ± 0.3 nM; IC50 (SKOV3 cells): 6.9 ± 0.1 nM; IC50 (MDA-435 cells): 5 ± 0.3 nM; IC50 [3]: 5.7 ± 0.4 nM; Inhibition of colchicine binding % inhibition ± SD [4]: 99 ± 0.2%
 |  |  |  | COc1ccc(N(C)c2nc(C)nc3oc(C)cc23)cc1 [Compound 1, reference compound] | 103 | 2400 ± 10 |  | 
 |  |  |  | COc1ccc(N(C)c2nc(C)nc3oc(C)cc23)c(OC)c1 [Compound 2, N-(2,4-dimethoxyphenyl)-N,2,6-trimethylfuro[2,3-d]pyrimidin-4-amine] |  |  | 17.1 ± 2 | 
66.1 ± 8.1 | 90.3 ± 10.2 | 18.6 ± 3 |  | COc1ccc(N(C)c2nc(C)nc3oc(C)cc23)cc1OC [Compound 3, N-(3,4-dimethoxyphenyl)-N,2,6-trimethylfuro[2,3-d]pyrimidin-4-amine] |  |  | 9.7 ± 1.2 | effect on cellular microtubules ([2]; in words): dose-dependent loss of cellular microtubules
166 ± 20.2 |  |  | > 10000 | COc1cc(N(C)c2nc(C)nc3oc(C)cc23)cc(OC)c1OC [Compound 4, N,2,6-trimethyl-N-(3,4,5-trimethoxyphenyl)furo[2,3-d]pyrimidin-4-amine] |  |  | > 300 | IC50 [5]: > 300000 nM
50.1 ± 7.8 | 298 ± 38.1 | 19.9 ± 2.1 | > 10000 | Cc1nc(N(C)c2ccc3c(c2)OCO3)c2cc(C)oc2n1 [Compound 5, N-1,3-benzodioxol-5-yl-N,2,6-trimethylfuro[2,3-d]pyrimidin-4-amine] |  |  | 48.9 ± 5.1 | 
